Reference: patent publication US20200032163A1, “Method for the Virus Inactivation of a Preparation of Monoclonal Antibodies” (Laboratoire Francais du Fractionnement et des …, priority 2016, published 2020)

Assays:
[1] = Adsorption of polysorbate 80 and TnBP by the multilayer film of the 75 mL flexible bag (HPLC)
[2] = Adsorption of Triton X-100 by the multilayer film of the 75 mL flexible bag (HPLC); type: physicochemical; conditions: 120 minutes
Procedure: In parallel, a negative control was carried out, repeating the experiment in a 0.5 litre glass flask filled with 316 mL of a 1% Triton X-100® solution. […] Samples were taken after 0 and 120 minutes.

[3] = Distribution of the concentration of Triton X-100 in a 50 L bag (RP-HPLC); type: physicochemical; conditions: 1% Triton X-100 in purified water
[4] = Bag according to the invention, 30 min, 25±3° C.
[5] = Bag according to the invention, 1 hour, 25±3° C.
[6] = Bag according to the invention, 2 hours, 25±3° C.

Row | Substance | adsorption by the bag ([1]; 75 mL flexible bag, 2 hours, 25±3° C.) | Polysorbate 80 Concentration ([1]; Bag according to the invention, 0 min, 25±3° C.) [mg/L] | Polysorbate 80 Adsorption with respect to T0 [1, 4] [%] | Polysorbate 80 Concentration [1, 4] [mg/L] | Polysorbate 80 Adsorption with respect to T0 [1, 5] [%] | Polysorbate 80 Concentration [1, 5] [mg/L] | Polysorbate 80 Adsorption with respect to T0 [1, 6] [%] | Polysorbate 80 Concentration [1, 6] [mg/L] | Polysorbate 80 Concentration ([1]; Glass flask (negative control), 30 min) [mg/L] | concentration after 2 hours of incubation ([1]; in the bag or in the glass flask) | reduction of the concentration of Triton X-100 ([2]; 0.5 litre glass flask (negative control), 1% solution, magnetic stirring) [%] | adsorption of the Triton X-100 by the bag ([2]; 75 mL flexible bag, 1% (w/w) solution) | reduction of the concentration of Triton X-100 ([2]; 75 mL flexible bag, 1% (w/w) solution, orbital stirring, 20±5° C.) [%] | greatest difference observed between the lower and higher concentrations measured ([3]; 0 to 120 minutes) [%] | difference in concentration of Triton X-100 between the upper part and the bottom of the bag ([3]; stirring 40 rpm) [%]
1 | polyethylene glycol monooleate [Polysorbate 80] | no significant adsorption | 11147 | −2.3 | 11408 | −3.3 | 11519 | −2.6 | 11432 | 10374 | stable | – | – | – | – | –
2 | polyethylene glycol tert-octylphenyl ether [Triton X-100®] | – | – | – | – | – | – | – | – | – | – | 3.1 | no significant adsorption | 5 | 7.90 | 2.7
